Measurements: ChEMBL document CHEMBL6083208, “Integrating amino acids into Bcr-Abl inhibitors: design, synthesis, biological evaluation, and in silico studies” (RSC Med Chem, 2024)

Assays:
Bcr/Abl fusion protein = Bcr/Abl fusion protein (Homo sapiens, UniProt P00519); test: Inhibition of wild type Bcr-Abl (unknown origin) using Abltide as substrate incubated for 1 hr by luminescence based ADP-glo assay; format: protein assay
[1] = Inhibition of Bcr-Abl T315Ialpha mutant (unknown origin) using Abltide as substrate incubated for 1 hr by luminescence based ADP-glo assay; design: species or system Homo sapiens
BaF3 = test: Antiproliferative activity against mouse BaF3 cells harbouring Bcr-Abl T315I assessed of cell viability at 30 uM incubated for 72 hrs by Celltiter-glo luminescent cell viability assay relative to control; format: functional
HEK293 = test: Antiproliferative activity against HEK293 cells after 48 hrs by MTT assay; format: toxicity, cell-based; design: concentration or dose not given beside the values; conditions: human, hek293, 48 h
THP-1 = test: Antiproliferative activity against human THP-1 cells after 48 hrs by MTT assay; format: functional; design: concentration or dose not given beside the values
K562 = test: cells; conditions: Homo sapiens, K562, 48 h

Sequence of Bcr/Abl fusion protein (P00519 whole entry, the tested form may be a part): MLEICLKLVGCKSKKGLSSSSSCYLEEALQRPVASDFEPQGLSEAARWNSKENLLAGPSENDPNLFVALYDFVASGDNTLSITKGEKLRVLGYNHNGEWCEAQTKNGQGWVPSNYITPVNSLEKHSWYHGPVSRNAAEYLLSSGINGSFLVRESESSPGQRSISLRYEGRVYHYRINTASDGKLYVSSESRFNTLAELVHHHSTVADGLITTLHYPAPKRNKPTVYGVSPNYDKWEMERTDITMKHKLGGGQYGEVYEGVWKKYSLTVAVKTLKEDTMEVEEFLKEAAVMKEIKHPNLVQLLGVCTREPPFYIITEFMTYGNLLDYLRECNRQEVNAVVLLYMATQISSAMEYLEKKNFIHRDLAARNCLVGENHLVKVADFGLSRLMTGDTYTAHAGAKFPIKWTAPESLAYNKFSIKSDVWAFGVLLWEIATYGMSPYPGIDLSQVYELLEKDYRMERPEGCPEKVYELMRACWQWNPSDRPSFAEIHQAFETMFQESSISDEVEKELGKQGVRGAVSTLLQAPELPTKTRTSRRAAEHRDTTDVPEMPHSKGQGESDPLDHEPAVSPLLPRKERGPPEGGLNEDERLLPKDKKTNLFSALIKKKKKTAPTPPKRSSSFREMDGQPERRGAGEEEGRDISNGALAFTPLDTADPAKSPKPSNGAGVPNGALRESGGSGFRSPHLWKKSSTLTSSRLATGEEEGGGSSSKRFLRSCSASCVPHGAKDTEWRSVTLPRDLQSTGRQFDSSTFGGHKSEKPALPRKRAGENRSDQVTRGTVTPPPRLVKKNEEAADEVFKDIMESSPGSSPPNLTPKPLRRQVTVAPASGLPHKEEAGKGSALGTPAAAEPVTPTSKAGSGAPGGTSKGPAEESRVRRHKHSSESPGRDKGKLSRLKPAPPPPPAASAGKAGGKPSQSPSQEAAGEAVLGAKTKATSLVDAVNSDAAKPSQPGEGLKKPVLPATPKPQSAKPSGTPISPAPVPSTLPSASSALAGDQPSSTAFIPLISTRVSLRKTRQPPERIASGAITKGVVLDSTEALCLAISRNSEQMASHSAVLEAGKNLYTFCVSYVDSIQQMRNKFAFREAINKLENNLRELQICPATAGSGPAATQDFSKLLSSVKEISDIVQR
Sequence of Bcr/Abl fusion protein (P11274 whole entry, further chain, the tested form may be a part): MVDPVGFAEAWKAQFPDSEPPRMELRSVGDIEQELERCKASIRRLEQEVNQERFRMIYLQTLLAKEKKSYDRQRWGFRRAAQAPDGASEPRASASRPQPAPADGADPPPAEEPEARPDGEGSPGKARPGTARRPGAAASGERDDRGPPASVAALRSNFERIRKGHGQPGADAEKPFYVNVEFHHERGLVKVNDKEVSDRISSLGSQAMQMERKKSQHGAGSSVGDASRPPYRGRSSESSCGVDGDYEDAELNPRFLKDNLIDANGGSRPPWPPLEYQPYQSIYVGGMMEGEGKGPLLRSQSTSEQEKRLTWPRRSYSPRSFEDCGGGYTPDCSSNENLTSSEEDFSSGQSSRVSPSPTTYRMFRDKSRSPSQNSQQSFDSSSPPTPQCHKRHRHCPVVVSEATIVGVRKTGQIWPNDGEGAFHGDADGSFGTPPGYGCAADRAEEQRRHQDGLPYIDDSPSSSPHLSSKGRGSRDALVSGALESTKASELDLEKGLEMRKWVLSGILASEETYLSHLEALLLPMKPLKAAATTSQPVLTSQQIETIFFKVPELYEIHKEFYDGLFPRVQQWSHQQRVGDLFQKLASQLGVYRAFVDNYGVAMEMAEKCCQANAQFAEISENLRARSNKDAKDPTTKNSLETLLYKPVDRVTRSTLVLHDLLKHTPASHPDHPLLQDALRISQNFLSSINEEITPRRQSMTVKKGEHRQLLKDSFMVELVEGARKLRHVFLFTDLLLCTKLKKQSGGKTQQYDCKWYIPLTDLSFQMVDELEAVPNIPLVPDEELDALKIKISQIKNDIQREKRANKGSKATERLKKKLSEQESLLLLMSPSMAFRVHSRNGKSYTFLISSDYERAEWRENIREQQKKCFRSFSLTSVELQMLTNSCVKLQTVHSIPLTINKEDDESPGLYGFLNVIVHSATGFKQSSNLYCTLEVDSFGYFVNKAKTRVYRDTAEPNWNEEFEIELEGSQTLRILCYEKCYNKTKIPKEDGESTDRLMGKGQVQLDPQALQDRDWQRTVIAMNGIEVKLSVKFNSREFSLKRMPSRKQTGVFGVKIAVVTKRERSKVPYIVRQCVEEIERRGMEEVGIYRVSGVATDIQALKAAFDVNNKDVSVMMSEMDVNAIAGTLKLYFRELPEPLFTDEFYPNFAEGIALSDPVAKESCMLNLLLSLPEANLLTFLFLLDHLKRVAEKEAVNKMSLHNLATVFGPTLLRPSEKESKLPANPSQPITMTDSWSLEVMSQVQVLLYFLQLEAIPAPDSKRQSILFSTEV

Row | Structure (SMILES) | IC50 (Bcr/Abl fusion protein) [nM] | IC50 [1] [nM] | inhibition at 30 µM (BaF3) [%] | Activity (HEK293) [%] | Activity (THP-1) [%] | IC50 (K562) [nM]
1 | CS(=O)(=O)Nc1cc(-c2ccc(C(=O)N[C@@H](CO)C(=O)Nc3ccc(Cl)c(C(F)(F)F)c3)cc2)ccn1 | 0.33 | 87 | 5.71 | 78 | 87 | 0.13
2 | CCN(CC)C(=O)c1cncc(-c2cccc(C(=O)N[C@H](C(=O)Nc3ccc(Cl)c(C(F)(F)F)c3)C(C)(C)C)c2)c1 | 6.69 | 148 | 50.8 | 100 | 55 | 2.66
3 | CCN(CC)C(=O)c1cncc(-c2ccc(C(=O)N[C@@H](CO)C(=O)Nc3ccc(Cl)c(C(F)(F)F)c3)cc2)c1 | 0.27 | 261 | -1.59 | 74 | 100 | 12.2
4 | CS(=O)(=O)Nc1ccc(-c2cccc(C(=O)N[C@@H](CO)C(=O)Nc3ccc(Cl)c(C(F)(F)F)c3)c2)cn1 | 0.93 | 217 | 62.8 | 94 | 83 | 1.33
5 | CC(=O)Nc1cc(-c2ccc(C(=O)N[C@@H](CO)C(=O)Nc3ccc(Cl)c(C(F)(F)F)c3)cc2)ccn1 | 0.8 | 136 | 58.8 | 91 | 72 | 2.64
6 | CCN(CC)C(=O)c1cncc(-c2cccc(C(=O)N[C@@H](CO)C(=O)Nc3ccc(Cl)c(C(F)(F)F)c3)c2)c1 | 3.57 | 295 | 53.2 | 84 | 75 | 4.92
7 | CCN(CC)C(=O)c1cncc(-c2ccc(C(=O)N[C@@H](COC(C)(C)C)C(=O)Nc3ccc(Cl)c(C(F)(F)F)c3)cc2)c1 | 5.46 | 144 | 35 | 73 | 100 | 6.26
8 | CCN(CC)C(=O)c1cncc(-c2ccc(C(=O)N[C@H](C(=O)Nc3ccc(Cl)c(C(F)(F)F)c3)C(C)(C)C)cc2)c1 | 4.5 | 185 | 42.8 | 97 | 56 | 10.2
9 | Nc1cc(-c2ccc(C(=O)N[C@@H](CO)C(=O)Nc3ccc(Cl)c(C(F)(F)F)c3)cc2)ccn1 | 0.24 | 99 | -3.39 | 83 | 100 | 0.36
10 | CCN(CC)C(=O)c1cncc(-c2cccc(C(=O)N[C@@H](COC(C)(C)C)C(=O)Nc3ccc(Cl)c(C(F)(F)F)c3)c2)c1 | 33 | 132 | 58.4 | 100 | 84 | 8.11
11 | CC(C)(C)OC[C@H](NC(=O)c1ccc(-c2cncc(C(=O)NC3CC3)c2)cc1)C(=O)Nc1ccc(Cl)c(C(F)(F)F)c1 | 15.5 | 128 | 69.7 | 84 | 79 | 2.5
12 | CC(C)(C)OC[C@H](NC(=O)c1cccc(-c2ccc(NC(=O)C3CC3)nc2)c1)C(=O)Nc1ccc(Cl)c(C(F)(F)F)c1 | 3.75 | 204 | -4.27 | 92 | 74 | –
13 | CC(=O)Nc1ccc(-c2cccc(C(=O)N[C@@H](COC(C)(C)C)C(=O)Nc3ccc(Cl)c(C(F)(F)F)c3)c2)cn1 | 56 | 723 | 77.1 | 98 | 64 | 19.4
14 | CC(C)(C)OC[C@H](NC(=O)c1cccc(-c2ccc(NC(=O)C(C)(C)C)nc2)c1)C(=O)Nc1ccc(Cl)c(C(F)(F)F)c1 | 8.61 | 436 | -5.67 | 72 | 73 | 1.26
15 | Cc1ccc(C(=O)Nc2ccc(CN3CCN(C)CC3)c(C(F)(F)F)c2)cc1C#Cc1cnc2cccnn12 [PONATINIB] | – | – | – | 55 | 3 | 0.049
